Values of other authors in US20110105442A2, “MEANS AND METHODS FOR CONTROLLING COMMENSALES” (Biotechnology Research And Information Network, AG …, priority 2008, published 2011).
Where two headings read alike, the source gives them in different places.

Test system: certain Gram-positive and Gram-negative bacteria including commensales of the skin
Details: Malmstrøm et al., 2002, biofilm not assayed

C/C=C/C1=CC(=O)[C@H](O)[C@H]1O (stereo in doubt) [Terrein, 4,5-Dihydroxy-3-(1-propenyl)-2-cyclopenten-1-one]
antibacterial activity: weak antibacterial activity
antibacterial activity (listed as terrein): weak to negligible activity
